Experiment [1] has as its system nitrification. The experiment in a line: Example 3: soil column trial (soil Limburgerhof) with ammonium sulfate, DMPP, DMPSA or DMPP+DMPSA; leaching at 5° C., incubation 10 d or 20 d at 15° C.; NH4-N/NO3-N, % inhibition of NO3-N formation (Böhland), Colby. The settings on record: 0.05% DMPP, 0.45% DMPSA. From the text: The effect on NH4^+ retention and NH4^+ to NO3^− ratios in the soil after fertilization of ammonium sulfate with the addition of DMPP, DMPSA or a combination of DMPP and DMPSA was investigated in column trials simulating climatic conditions of spring time in central Europe. Soil Limburgerhof (pH(CaCl2) 6.8, texture: 73% sand; 24% silt, 3% clay) was filled dry into a glass column with an inner width of 4 cm. At the bottom 0.4 g cotton wool was placed above which a frit (Co. Robu, pore size 1) was placed above which 100 g of 2 mm sieved soil Limburgerhof was layered. The soil height in the column was about 7 cm. Before fertilization the soil was brought to about 60% of its water holding capacity (WHC) be adding 14.4 mL of deionized water. Per column 10 mg NH4—N as ammonium sulfate was fertilized or not (control) together or not with 0.05% DMPP (DMPP obtained from BASF SE), 0.45% DMPSA (DMPSA used as free acid obtained from BASF SE) and 0.05% DMPP plus 0.45% DMPSA (% of nitrification inhibitor w/w of NH4—N). Every treatment was replicated three times.
After fertilization, 50 mL demineralized water was carefully and slowly placed on top of each column which equals about 31 mm precipitation. After 24 h the eluate was collected and by sucking off the soil to bring it back to about 60% of its WHC. All handlings including soil preparation, fertilization and the temperature of the water for both wetting the soil and the artificial precipitation up to the collection of the eluate 24 h after fertilization was performed at 5° C.
Thereafter, the columns were incubated for 10 d or 20 d at constantly 15° C. in an incubator. After 7 d and 14 d, water was added by weight where needed to bring the soils uniformly to 60% WHC. After 10 d or 20 d, the soil was removed from the columns and extracted with 1% (w/w) K2SO4 solution by shaking for 2 h at room temperature. The filtrated extract was then analyzed for NH4^+ and NO3 colorimetrical by an autoanalyzer.
(§1) To calculate the inhibition of nitrate formation by the nitrification inhibitors during the incubation, the above-mentioned Böhland equation was used. To examine synergistic effects of the combination of DMPP+DMPSA the formula by Colby (Colby, S.R., “Calculating synergistic and antagonistic responses of herbicide Combinations”, Weeds, 15, pp. 20-22, 1967) was used. To determine background levels of NH4+ to NO3−, every treatment was also extracted immediately after fertilization and after leaching prior to the further incubation at 15° C. for 10 d or 20 d.

The test system of experiment [2] is nitrification. Nature of the experiment: Example 4: soil column trial (soil Limburgerhof), DMPSA and DMPP, other weight ratios; incubation 10 d at 15° C.; % inhibition of NO3-N formation (Böhland), Colby. To be noted: 10 days of incubation at 15° C.
Description: The effect on NH4+ retention and NH4+ to NO3− ratios in the soil after fertilization of ammonium sulfate with the addition of DMPP, DMPSA or a combination of DMPP and DMPSA was investigated in column trials simulating climatic conditions of spring time in central Europe. Soil Limburgerhof (pH(CaCl2) 6.8, texture: 73% sand; 24% silt, 3% clay) was filled dry into a glass column with an inner width of 4 cm. At the bottom 0.4 g cotton wool was placed above which a frit (Co. Robu, pore size 1) was placed above which 100 g of 2 mm sieved soil Limburgerhof was layered. The soil height in the column was about 7 cm. Before fertilization the soil was brought to about 60% of its water holding capacity (WHC) be adding 14.4 mL of deionized water. Per column 10 mg NH4—N as ammonium sulfate was fertilized or not (control) together or not with 0.005% or 0.015% DMPP (DMPP obtained from BASF SE), 0.45% DMPSA (DMPSA used as free acid obtained from BASF SE) and […] or 0.015% DMPP plus 0.45% DMPSA (% of nitrification inhibitor w/w of NH4-N). Every treatment was replicated three times. After fertilization, 50 mL demineralized water was carefully and slowly placed on top of each column which equals about 31 mm precipitation. After 24 h the eluate was collected and by sucking off the soil to bring it back to about 60% of its WHC. All handlings including soil preparation, fertilization and the temperature of the water for both wetting the soil and the artificial precipitation up to the collection of the eluate 24 h after fertilization was performed at 5° C.
Thereafter, the columns were incubated for 10 d or 20 d at constantly 15° C. in an incubator. After 7 d and 14 d water was added by weight where needed to bring the soils uniformly to 60% WHC. After 10 d or 20 d the soil was removed from the columns and extracted with 1% (w/w) K2SO4 solution by shaking for 2 h at room temperature. The filtrated extract was then analyzed for NH4+ and NO3− colorimetrical by an autoanalyzer.
as §1

[3] abbreviates: 10 days of incubation at 15° C.
[4] abbreviates: 20 days of incubation at 15° C.
Where [5] appears, read: 0.015% DMPP, alone or + 0.45% DMPSA.

`Cc1c[nH]nc1C.O=P(O)(O)O` [DMPP, 3,4-dimethyl pyrazole phosphate and/or 4,5-dimethyl pyrazole phosphate]: in experiment [1] (setting [3]), the “During incubation: % inhibition of NO3—N formation by NI acc. to Böhland equation (1973) (MV)” value (from here on “During incubation: % inhibition”) is given as 69.8%, the “Net NI effect % NH4 from fertilized NH4 (MV)” value (“Net NI effect % NH4” for short) was 41.02%, the “Ratio NH4—N/NO3—N (MV)” value worked out at 2.86 and the “Soil mg/100 g NH4—N (MV)” value was found to be 6.58 mg/100 g. Further, in experiment [1] (setting [3]), the “Soil mg/100 g NO3—N (MV)” value turned out to be 2.34 mg/100 g. Besides, in experiment [1] (setting [4]), the “During incubation: % inhibition” value was found to be 14.9%, the “Net NI effect % NH4” value was found to be 6.67%, the “Ratio NH4—N/NO3—N (MV)” value stood at 0.08 and the “Soil mg/100 g NH4—N (MV)” value turned out to be 0.68 mg/100 g. Also, the “Soil mg/100 g NO3—N (MV)” value in experiment [1] (setting [4]) amounted to 8.60 mg/100 g. For the same molecule, in experiment [2] (0.005% DMPP, 0.45% DMPSA), the “During incubation: % inhibition” value is −4.6%, the “Net NI effect % NH4” value amounted to 6.22%, the “Ratio NH4—N/NO3—N (MV)” value came out at 0.10 and the “Soil mg/100 g NH4—N (MV)” value is 0.65 mg/100 g. Besides, in experiment [2] (0.005% DMPP, 0.45% DMPSA), the “Soil mg/100 g NO3—N (MV)” value was found to be 6.94 mg/100 g. In experiment [2] (setting [5]), the “During incubation: % inhibition” value is reported as 15.7%, the “Net NI effect % NH4” value worked out at 11.49%, the “Ratio NH4—N/NO3—N (MV)” value turned out to be 0.21 and the “Soil mg/100 g NH4—N (MV)” value is 1.18 mg/100 g. For the same molecule, in experiment [2] (setting [5]), the “Soil mg/100 g NO3—N (MV)” value stood at 5.59 mg/100 g.

For the origin of these results see patent US20210371351A1, “MIXTURES COMPRISING AT LEAST TWO DIFFERENT NITRIFICATION INHIBITORS SELECTED FROM 2-(3,4-DIMETHYL-1H-PYRAZOL-1-YL)SUCCINIC ACID (DMPSA), 3,4-DIMETHYL PYRAZOLIUM GLYCOLATE (DMPG) AND OTHER COMPOUNDS” (BASF SE, priority 2017, published 2021).
